ChEMBL document CHEMBL1149028, “Isolation and structure of cephalostatins 10 and 11” (1994)
≈ marks a conversion by molar mass, not a printed value.

Legend:
Type in all cases: functional
P388 = experiment: Growth inhibition of mouse P388 cells; details: read-out: ED50 (the source's name)
K562 = experiment: Growth inhibition of human K562 cells
HCC 2998 = experiment: Growth inhibition of human HCC2998 cells
HT-29 = experiment: Growth inhibition of human HT-29 cells
[1] = Growth inhibition of human 786-O cells; details: 786-0
EKVX = experiment: Growth inhibition of human EKVX cells
RXF 393 = experiment: Growth inhibition of human RXF393 cells
UACC-257 = experiment: Growth inhibition of human UACC257 cells
SF-295 = experiment: Growth inhibition of human SF295 cells
HOP-92 = experiment: Growth inhibition of human HOP92 cells
SNB-78 = experiment: Growth inhibition of human SNB78 cells
M19-MEL = experiment: Growth inhibition of human M19-MEL cells
A549 = experiment: Growth inhibition of human A549 cells
SNB-75 = experiment: Growth inhibition of human SNB75 cells
HOP-62 = experiment: Growth inhibition of human HOP62 cells
SR = experiment: Growth inhibition of human SR cells
LOX IMVI = experiment: Growth inhibition of human LOXIMVI cells
HCT-116 = experiment: Growth inhibition of human HCT116 cells
DMS-273 = experiment: Growth inhibition of human DMS273 cells
OVCAR-8 = experiment: Growth inhibition of human OVCAR8 cells; details: OVCAR-8, read-out: pGI50 (converted)
NCI-H460 = experiment: Growth inhibition of human NCI-H460 cells
IGROV-1 = experiment: Growth inhibition of human IGROV1 cells
U-251 = experiment: Growth inhibition of human U251 cells
SF-539 = experiment: Growth inhibition of human SF539 cells
CCRF-CEM = experiment: Growth inhibition of human CCRF-CEM cells
[2] = Growth inhibition of human LXFL529 cells; details: LXFL 529
ACHN = experiment: Growth inhibition of human ACHN cells
DLD-1 = experiment: Growth inhibition of human DLD1 cells
KM-20L2 = experiment: Growth inhibition of human KM20L2 cells
SW-620 = experiment: Growth inhibition of human SW620 cells
KM12 = experiment: Growth inhibition of human KM12 cells
SK-OV-3 = experiment: Growth inhibition of human SKOV3 cells
DMS-114 = experiment: Growth inhibition of human DMS114 cells
SN12C = experiment: Growth inhibition of human SN12C cells
XF498 = experiment: Growth inhibition of human XF498 cells
SNB-19 = experiment: Growth inhibition of human SNB19 cells
TK-10 = experiment: Growth inhibition of human TK10 cells
SF-268 = experiment: Growth inhibition of human SF268 cells
SK-MEL-5 = experiment: Growth inhibition of human SK-MEL-5 cells
HOP-18 = experiment: Growth inhibition of human HOP18 cells
A498 = experiment: Growth inhibition of human A498 cells
RPMI-8226 = experiment: Growth inhibition of human RPMI8226 cells
UO-31 = experiment: Growth inhibition of human UO31 cells
COLO 205 = experiment: Growth inhibition of human COLO205 cells
OVCAR-3 = experiment: Growth inhibition of human OVCAR-3 cells
HCT-15 = experiment: Growth inhibition of human HCT15 cells
NCI-H322M = experiment: Growth inhibition of human NCI-H322M cells
M14 = experiment: Growth inhibition of human M14 cells
HL-60(TB) = experiment: Growth inhibition of human HL-60(TB) cells
UACC-62 = experiment: Growth inhibition of human UACC62 cells
SK-MEL-2 = experiment: Growth inhibition of human SK-MEL-2 cells
NCI-H522 = experiment: Growth inhibition of human NCI-H522 cells
CAKI-1 = experiment: Growth inhibition of human Caki1 cells
SK-MEL-28 = experiment: Growth inhibition of human SK-MEL-28 cells
OVCAR-4 = experiment: Growth inhibition of human OVCAR4 cells
OVCAR-5 = experiment: Growth inhibition of human OVCAR5 cells
Malme-3M = experiment: Growth inhibition of human MALME-3M cells
MOLT-4 = experiment: Growth inhibition of human MOLT4 cells
NCI-H226 = experiment: Growth inhibition of human NCI-H226 cells
NCI-H23 = experiment: Growth inhibition of human NCI-H23 cells

Question: With `CO[C@H]1c2nc3c(nc2C[C@@H]2CC[C@H]4C5=CC[C@@H]6[C@@H](C)[C@]7(OC[C@]56C(=O)C[C@]4(O)[C@]21C)OC(C)(C)C[C@H]7O)C[C@@]1(C)[C@@H](CC[C@H]2C4=C[C@@H]5O[C@]6(O[C@](C)(CO)C[C@H]6O)[C@@H](C)[C@]5(O)[C@@]4(C)[C@H](O)C[C@@H]21)C3` as the compound, how does the EC50 (P388) read?
Answer: 2.5 ng/mL (≈ 2.61 nM)

Question: Which GI50 (K562) does the source give for `C[C@@H]1[C@]2(O[C@H]3C=C4[C@@H]5CC[C@H]6Cc7nc8c(nc7C[C@]6(C)[C@H]5C[C@@H](O)[C@]4(C)[C@]31O)C[C@@H]1CC[C@H]3C4=CC[C@@H]5[C@H](C)[C@@]6(OC[C@]45C(=O)C[C@@H]3[C@@]1(C)C8)OC(C)(C)C[C@H]6O)O[C@](C)(CO)C[C@H]2O` [CEPHALOSTATIN 1] here?
Answer: 0.427 nM

Question: What about the GI50 (HCC 2998) of the same compound?
Answer: 60.3 nM

Question: What about the GI50 (HT-29) of the same compound?
Answer: 2 nM

Question: And the GI50 [1]?
Answer: 0.0776 nM

Question: What about the GI50 (EKVX) of the same compound?
Answer: 43.6 nM

Question: And the GI50 (RXF 393)?
Answer: 0.0251 nM

Question: What about the GI50 (UACC-257) of the same compound?
Answer: 3.71 nM

Question: And the GI50 (SF-295)?
Answer: 0.0437 nM

Question: And the GI50 (HOP-92)?
Answer: 0.724 nM

Question: And the GI50 (SNB-78)?
Answer: 0.794 nM

Question: What about the GI50 (M19-MEL) of the same compound?
Answer: 47.9 nM

Question: What about the GI50 (A549) of the same compound?
Answer: 1.1 nM

Question: What about the GI50 (SNB-75) of the same compound?
Answer: 0.0813 nM

Question: What about the GI50 (HOP-62) of the same compound?
Answer: 0.209 nM

Question: And the GI50 (SR)?
Answer: 0.288 nM

Question: What about the GI50 (LOX IMVI) of the same compound?
Answer: 0.24 nM

Question: What about the GI50 (HCT-116) of the same compound?
Answer: 0.525 nM

Question: And the GI50 (DMS-273)?
Answer: 0.0525 nM

Question: What about the GI50 (OVCAR-8) of the same compound?
Answer: 24 nM

Question: And the GI50 (NCI-H460)?
Answer: 0.309 nM

Question: What about the GI50 (IGROV-1) of the same compound?
Answer: 2.19 nM

Question: And the GI50 (U-251)?
Answer: 0.0646 nM

Question: And the GI50 (SF-539)?
Answer: 0.0813 nM

Question: And the GI50 (CCRF-CEM)?
Answer: 0.251 nM

Question: And the GI50 [2]?
Answer: 0.363 nM

Question: What about the GI50 (ACHN) of the same compound?
Answer: 3.31 nM

Question: What about the GI50 (DLD-1) of the same compound?
Answer: 8.51 nM

Question: What about the GI50 (KM-20L2) of the same compound?
Answer: 2 nM

Question: What about the GI50 (SW-620) of the same compound?
Answer: 0.302 nM

Question: What about the GI50 (KM12) of the same compound?
Answer: 3.24 nM

Question: And the GI50 (SK-OV-3)?
Answer: 7.08 nM

Question: What about the GI50 (DMS-114) of the same compound?
Answer: 0.661 nM

Question: What about the GI50 (SN12C) of the same compound?
Answer: 21.9 nM

Question: And the GI50 (XF498)?
Answer: 0.589 nM

Question: What about the GI50 (SNB-19) of the same compound?
Answer: 1.7 nM

Question: And the GI50 (TK-10)?
Answer: 93.3 nM

Question: And the GI50 (SF-268)?
Answer: 2.19 nM

Question: And the GI50 (SK-MEL-5)?
Answer: 3.47 nM

Question: And the GI50 (HOP-18)?
Answer: 0.832 nM

Question: What about the GI50 (A498) of the same compound?
Answer: 0.537 nM

Question: What about the GI50 (RPMI-8226) of the same compound?
Answer: 0.0513 nM

Question: What about the GI50 (UO-31) of the same compound?
Answer: 4.17 nM

Question: And the GI50 (COLO 205)?
Answer: 1.7 nM

Question: And the GI50 (OVCAR-3)?
Answer: 30.9 nM

Question: And the GI50 (HCT-15)?
Answer: 3.39 nM

Question: And the GI50 (NCI-H322M)?
Answer: 33.1 nM

Question: What about the GI50 (M14) of the same compound?
Answer: 0.49 nM

Question: What about the GI50 (HL-60(TB)) of the same compound?
Answer: 0.151 nM

Question: What about the GI50 (UACC-62) of the same compound?
Answer: 0.389 nM

Question: What about the GI50 (SK-MEL-2) of the same compound?
Answer: 0.741 nM

Question: What about the GI50 (NCI-H522) of the same compound?
Answer: 2.4 nM

Question: And the GI50 (CAKI-1)?
Answer: 0.724 nM

Question: And the GI50 (SK-MEL-28)?
Answer: 0.955 nM

Question: What about the GI50 (OVCAR-4) of the same compound?
Answer: 14.1 nM

Question: What about the GI50 (OVCAR-5) of the same compound?
Answer: 10 nM

Question: And the GI50 (Malme-3M)?
Answer: 5.25 nM

Question: What about the GI50 (MOLT-4) of the same compound?
Answer: 0.2 nM

Question: And the GI50 (NCI-H226)?
Answer: 3.24 nM

Question: And the GI50 (NCI-H23)?
Answer: 0.339 nM

Question: For `CO[C@H]1c2nc3c(nc2C[C@@H]2CC[C@H]4C5=C[C@@H]6O[C@]7(O[C@](C)(CO)C[C@H]7O)[C@@H](C)[C@]6(O)[C@@]5(C)[C@H](O)C[C@@H]4[C@]21C)C[C@@]1(C)[C@@H](CC[C@H]2C4=CC[C@@H]5[C@H](C)[C@@]6(OC[C@]45C(=O)C[C@@]21O)OC(C)(C)C[C@H]6O)C3` [CEPHALOSTATIN 10], which EC50 (P388) is on record?
Answer: 3 ng/mL (≈ 3.13 nM)
